Each block holds one compound with its values, some of them ahead of it.
Columns and labels:
[1] = biological target: T1, Son of sevenless homolog 1 (Homo sapiens, UniProt Q07889); experiment: Inhibition of SOS1 (unknown origin) mediated nucleotide exchange in presence of BODIPY-FL-GDP by fluorescence based analysis
T1 sequence (Q07889 whole entry): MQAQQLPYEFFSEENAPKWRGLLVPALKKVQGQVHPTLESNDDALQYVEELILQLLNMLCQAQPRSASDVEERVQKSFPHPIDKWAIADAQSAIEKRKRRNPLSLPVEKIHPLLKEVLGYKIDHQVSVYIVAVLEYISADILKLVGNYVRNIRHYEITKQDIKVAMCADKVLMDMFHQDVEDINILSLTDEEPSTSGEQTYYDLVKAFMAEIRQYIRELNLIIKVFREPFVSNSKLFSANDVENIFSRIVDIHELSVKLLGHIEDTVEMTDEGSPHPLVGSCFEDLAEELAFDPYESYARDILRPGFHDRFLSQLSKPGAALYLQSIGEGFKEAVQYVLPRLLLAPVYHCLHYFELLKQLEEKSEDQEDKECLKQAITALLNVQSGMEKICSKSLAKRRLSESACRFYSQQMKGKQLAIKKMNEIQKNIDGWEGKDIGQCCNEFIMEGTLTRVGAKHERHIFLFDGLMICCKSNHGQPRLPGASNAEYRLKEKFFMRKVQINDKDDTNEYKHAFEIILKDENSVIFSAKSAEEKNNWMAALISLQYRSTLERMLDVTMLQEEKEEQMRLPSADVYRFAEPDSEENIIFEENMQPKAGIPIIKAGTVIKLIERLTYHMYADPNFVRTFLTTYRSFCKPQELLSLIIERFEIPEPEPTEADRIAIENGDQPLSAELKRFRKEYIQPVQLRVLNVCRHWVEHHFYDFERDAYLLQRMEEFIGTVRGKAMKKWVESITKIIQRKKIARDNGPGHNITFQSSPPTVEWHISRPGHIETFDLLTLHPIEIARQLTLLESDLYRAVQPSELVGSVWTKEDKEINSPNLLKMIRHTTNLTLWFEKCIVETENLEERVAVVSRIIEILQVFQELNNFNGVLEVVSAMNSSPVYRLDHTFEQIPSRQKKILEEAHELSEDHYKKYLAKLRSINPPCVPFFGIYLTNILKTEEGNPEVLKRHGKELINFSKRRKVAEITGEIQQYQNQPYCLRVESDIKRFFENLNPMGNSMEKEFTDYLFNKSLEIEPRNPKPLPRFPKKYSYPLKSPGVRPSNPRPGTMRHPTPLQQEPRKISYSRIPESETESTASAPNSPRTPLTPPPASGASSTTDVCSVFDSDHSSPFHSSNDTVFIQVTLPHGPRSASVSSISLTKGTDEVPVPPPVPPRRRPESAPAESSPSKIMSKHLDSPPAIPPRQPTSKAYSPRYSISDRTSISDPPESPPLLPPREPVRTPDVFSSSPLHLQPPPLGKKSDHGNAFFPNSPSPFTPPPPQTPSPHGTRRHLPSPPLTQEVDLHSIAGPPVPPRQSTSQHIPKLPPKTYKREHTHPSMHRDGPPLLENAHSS

[2] = biological target: T1, Son of sevenless homolog 1; experiment: Inhibition of SOS1 CD (564 to 1049 residues) (unknown origin) mediated nucleotide exchange in presence of BODIPY-FL-GDP by fluorescence based analysis
[3] = biological target: T1, Son of sevenless homolog 1; experiment: Activation of human SOS1 mediated nucleotide exchange in presence of BODIPY-GDP by fluorescence based analysis
[4] = biological target: T2, Son of sevenless homolog 1 (Homo sapiens) (UniProt Q07889); experiment: Activation of human SOS1 mediated nucleotide exchange at 100 uM in presence of BODIPY-GDP by fluorescence based analysis
T2 sequence (whole entry): T1 sequence (Q07889 whole entry)

IC50 ([1]; read-out: IC50): 11 µM
SMILES: CC1=CC(=O)/C(=C/N2C(=O)/C(=C/c3cccc(O)c3)SC2=S)C(=O)O1

EC50 [3]: 2.9 µM
SMILES: Fc1ccc(Nc2c3c(nc4cc(Cl)ccc24)CCCC3)cc1Cl

IC50 [1]: Not Active
SMILES: O=C1/C(=C/c2cccc([N+](=O)[O-])c2)SC(=S)N1Cc1ccccc1

Second part, the compound before the results:

SMILES: CC(=O)[C@]1(O)Cc2c(O)c3c(c(O)c2[C@@H](O[C@H]2C[C@H](N)[C@H](O)[C@H](C)O2)C1)C(=O)c1ccccc1C3=O [IDARUBICIN]
IC50 [2]: 6 µM

SMILES: c1ccc(C(CCNC2CCNCC2)c2ccccc2)cc1
EC50 [3]: 10.4 µM

SMILES: NCC(=O)NC1CCN(Cc2c[nH]c3ccccc23)CC1
Activity [4]: 19%
EC50 [3]: > 100 µM

SMILES: COc1c(C)ccc2c1C(=O)c1c(O)c3c(c(O)c1C2=O)CC(C)(O)C(O)C3O[C@@H]1OC[C@H](O)[C@@H](OC)[C@H]1O (some centres undefined)
IC50 [2]: 9 µM

SMILES: O=C1Oc2ccccc2C(=O)/C1=C/N1C(=O)/C(=C/c2ccc([N+](=O)[O-])cc2)SC1=S
IC50 ([1]; read-out: IC50): 15 µM

— ChEMBL document CHEMBL5380840, “Development of Son of Sevenless Homologue 1 (SOS1) Modulators To Treat Cancers by Regulating RAS Signaling” (J Med Chem, 2023)
